# PubChem BioAssay (NCI)
# Values joined by “and” are separate entries in the source; they are usually repeats but may differ in a detail not shown here. Equal entries are not always repeated.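 Values below derive from 48-hour exposures of cells grown in 96-well plates, with endpoints linearly interpolated between the two concentrations bracketing the appropriate inhibition level. GI50 is the concentration that inhibits growth by half. TGI: concentration producing complete growth inhibition.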
# Legend:
# Test in all cases: NCI tumour cell line growth inhibition, 48 h
# HCT-15 colon = tested on: HCT-15 colon
# HOP-62 NSCLC = tested on: HOP-62 NSCLC
# NCI-H522 lung = tested on: NCI-H522 lung
# OVCAR-4 ovarian = tested on: OVCAR-4 ovarian
# OVCAR-5 ovarian = tested on: OVCAR-5 ovarian
# SF-268 CNS = tested on: SF-268 CNS
# SW-620 colon = tested on: SW-620 colon
# U251 CNS = tested on: U251 CNS
# UACC-257 melanoma = tested on: UACC-257 melanoma
# SR leukemia = tested on: SR leukemia
SMILES,TGI (HCT-15 colon) [µM],TGI (HOP-62 NSCLC) [µM],TGI (NCI-H522 lung),TGI (OVCAR-4 ovarian) [µM],TGI (OVCAR-5 ovarian) [µM],TGI (SF-268 CNS) [µM],TGI (SW-620 colon) [µM],TGI (U251 CNS) [µM],TGI (UACC-257 melanoma) [µM],TGI (SR leukemia) [µM],GI50 (NCI-H522 lung) [µM]
NC(=O)CN1C=CCC(C(N)=O)=C1,> 100,> 100,> 100 µM,> 100,> 100,> 100,> 100,> 100,> 100,–,–
Cc1c([C@H](C)[C@@H]2NC[C@@H](C)C[C@H]2O)ccc2c1C[C@H]1[C@H]2CC=C2C[C@@H](O)CC[C@@]21C,57,96.4,36.6 µM,40,90.8,> 100,> 100,30.3,27.8,–,–
CC(C)(C)OC(=O)c1ccc(NCC2=C(Br)C(=O)C=CC2=O)cc1,32,> 100,13 µM,33,56.1,> 67.8,34.9,> 66.6,61.3,79.7,–
Cc1nc(Nc2ccccc2Cl)sc1C(=O)CC(=O)C(N)=O,> 100,> 100,6.79 µM,> 100,> 100,> 100,> 100,> 100,> 100,–,–
COC1=CC(=O)N(C)C(O)C1(C#N)OC1OC(CO)C(O)C(O)C1O (configuration not stated),> 100,> 100,> 100 µM,> 100,> 100,> 100,> 100,> 100,> 100,> 100,–
COc1ccccc1NC(=O)CC(=O)NN,> 100,> 100,> 100 µM,> 100,> 100,> 100,> 100,> 100,> 100,> 100,–
CCNc1cc2c3c(c1)CCN3CCC2,> 10,> 10,> 10 µM,> 10,–,> 10,> 10,> 10,> 10,> 10,–
C=C1CC(C)(c2cccc(Nc3nc4ccccc4c4occc34)c2)OC1=O (configuration not stated),17.4,25.9,–,20.4,31.7,29.1,–,> 100,3.47,–,–
O=c1[nH]nc(Cc2ccc(Cl)cc2)n1/N=C/c1ccc([N+](=O)[O-])o1,11.5,24.8,4.18 µM,15.9,> 54.6,7.93,> 21.6,> 34.4,9.3,7.55,–
Cc1ccccc1NC(=O)CC(=O)NNC(Sc1ccccc1)c1cc(N=Nc2ccc(Br)cc2)ccc1O (configuration not stated),> 10,> 10,> 10 µM,> 10,> 10,> 10,> 10,> 10,> 10,4.07,–
CC1CCC2(OC1)OC1C(O)C3C4CCC5CC(OC6OC(CO)C(OC7OC(CO)C(O)C(OC8OCC(O)C(O)C8O)C7OC7OC(CO)C(O)C(OC8OC(CO)C(O)C(O)C8O)C7O)C(O)C6O)C(O)CC5(C)C4CCC3(C)C1C2C (configuration not stated),12.2,3.92,3.79 µM,4.04,4.12,4.85,98.4,10.2,22.9,18.8,–
CC(CNC(N)=O)NC(N)=O (configuration not stated),> 100,> 100,> 100 µM,> 100,> 100,> 100,> 100,> 100,> 100,–,–
COc1cc(N(CCC#N)CCC#N)ccc1/C=N\NC(=O)c1ccc(C)cc1,> 100,> 100,> 100 µM,> 100,> 100,> 100,> 100,30.8,> 100,–,–
C=C1C(C)C2C(Cc3ccccc3)NC(=O)C23OC(=O)/C=C\CC(=O)CCC(C)C/C=C/C3C1O (configuration not stated),4.41,7.33,0.931 µM and 2.52 µM,7.39,25.2,7.48,3.82,10.7,3.89,–,0.366
[N-]=[N+]=NCC(O)Cn1cnc2c(NC(=O)c3ccccc3)ncnc21 (configuration not stated),> 100,> 100,> 100 µM,> 100,> 100,> 100,> 100,> 100,> 100,–,–
COC(NC(=O)Nc1ccccc1C)(C(F)(F)F)C(F)(F)F,–,> 100,> 100 µM,> 100,> 100,> 100,> 100,> 100,–,> 100,–
CCCCCCCCC#CCCCCCCCCCC[C@@H]1C(=O)O[C@H](C)[C@@H]1O (tested in a mixture with another compound),> 100,39,18.8 µM,54.9,> 100,30.4,36.4,> 100,> 100,–,–
CC1=CCC[C@H]2[C@](C)(CC3=CC(=O)C(SCC(C)C)=CC3=O)[C@@H](C)CC[C@]12C,31.8,31,–,31.8,40.9,–,51.7,42.3,37.8,59,–
O=[N+]([O-])/C(C(Cl)=C(Cl)Cl)=C(/Nc1cccc2cccnc12)n1nnc2ccccc21,28.1,37.5,–,45.7,58.3,37.4,31.3,–,> 100,–,–
C[C@H](C1CC2(C)OC2(C)C(=O)O1)[C@H]1CC[C@H]2[C@@H]3[C@@H]4O[C@@H]4[C@@]4(O)CC=CC(=O)[C@]4(C)[C@H]3CC[C@]12C (some centres not stated),> 50,> 50,> 50 µM,> 50,> 50,> 50,> 50,> 50,> 50,–,–
NC(=S)NC/C=C/Cl,> 100,> 100,> 100 µM,> 100,> 100,–,> 100,–,> 100,> 100,–
O=C(O)c1cccc(NC(C(=O)c2ccccc2)c2ccccc2)c1 (configuration not stated),> 100,> 100,> 100 µM,–,> 100,> 100,> 100,> 100,–,> 100,–
